Tests used:
[1] = Dissociation constant, pKa of the compound at pH < 5; type: physicochemical
Huh-7 = test: Cellular uptake in human HuH7 cells at 1 uM after 2 hrs by fluorescence microscopic analysis; type: ADME, cell-based; conditions: huh-7, 2 h
[2] = Drug uptake in human HuH7 cells assessed as localization in cytosol at 1 uM after 2 hrs by fluorescence microscopic analysis; type: ADME, cell-based, Huh-7
[3] = Dissociation constant, pKa of the compound at pH 4.8 to 8.2; type: physicochemical

| SMILES | pKa [1] | Drug uptake (Huh-7) | Drug uptake [2] | pKa [3] |
| --- | --- | --- | --- | --- |
| Nc1ccc(C#Cc2c3ccccc3c(C#Cc3cn([C@H]4C[C@H](O)[C@@H](CO)O4)c(=O)[nH]c3=O)c3ccccc23)cc1 | 3.9 |  |  |  |
| CNc1ccc(C#Cc2c3ccccc3c(C#Cc3cn([C@H]4C[C@H](O)[C@@H](CO)O4)c(=O)[nH]c3=O)c3ccccc23)cc1 | 3.7 | Not Active |  |  |
| CCC(CC)Nc1ccc(C#Cc2c3ccccc3c(C#Cc3cn([C@H]4C[C@H](O)[C@@H](CO)O4)c(=O)[nH]c3=O)c3ccccc23)cc1 | 3.7 |  |  |  |
| O=c1[nH]c(=O)n([C@H]2C[C@H](O)[C@@H](CO)O2)cc1C#Cc1c2ccccc2c(C#Cc2ccc(NC3CCCCC3)cc2)c2ccccc12 | 3.9 |  |  |  |
| CCCCNc1ccc(C#Cc2c3ccccc3c(C#Cc3cn([C@H]4C[C@H](O)[C@@H](CO)O4)c(=O)[nH]c3=O)c3ccccc23)cc1 | 3.5 |  |  |  |
| CC(C)(C)Nc1ccc(C#Cc2c3ccccc3c(C#Cc3cn([C@H]4C[C@H](O)[C@@H](CO)O4)c(=O)[nH]c3=O)c3ccccc23)cc1 | 6.1 |  | Active | 6.1 |
| CN(C)c1ccc(C#Cc2c3ccccc3c(C#Cc3cn([C@H]4C[C@H](O)[C@@H](CO)O4)c(=O)[nH]c3=O)c3ccccc23)cc1 | 3 |  |  |  |

Reference: ChEMBL document CHEMBL2016573, “Fluorescent nucleosides with 'on-off' switching function, pH-responsive fluorescent uridine derivatives” (Bioorg Med Chem Lett, 2012)
